# Measurements from publication PMC8347481, “Germacranolides from Carpesium divaricatum: Some New Data on Cytotoxic and Anti-Inflammatory Activity” (Molecules, 2021).
# Like-named read-outs stand apart in the source and are kept apart here.
# Assays:
# Du145 = assay: LDH cell viability assay, prostate cancer cells; assay type: cell-based; conditions: Homo sapiens, DU-145; for IC50: Du145, 24 h, LDH assay
# Procedure: (§1) Normal prostate epithelial cells (PNT2), two prostate cancer cell lines (Du145 and PC3), human keratinocytes (HaCaT), two melanoma cell lines (A375 and HTB140) and two colon cancer cell lines (HT29 and Caco-2) were treated with 3 at a concentration range 1.0–50.0 µg/mL. Viability of the cells was estimated using lactate dehydrogenase (LDH) assay.
# (§2) Cytotoxic activity of 3 was tested on human cancer and normal cells, grouped in three panels: prostate, skin and gastrointestinal. The prostate panel comprised prostate cancer cell lines DU145 (ATCC HTB-81) and PC3 (ATCC CRL-1435) and prostate normal epithelial cells PNT2 (ECACC 95012613). Melanoma cell lines A375 (ATCC CRL-1619) and HTB140 (ATCC Hs 294T) together with human keratinocytes HaCaT (obtained as a kind gift of Prof. Marta Michalik, Department of Cell Biology, Jagiellonian University) were included in the skin panel. Two colon cancer cell lines, namely Caco-2 (ATCC HTB-37) and HT29 (ATCC HTB-38), constituted the gastrointestinal panel. Du145 cells were grown in a modified Eagle’s medium with low (1.0 g/L) glucose concentration; HT29, PC3 and PNT-2 cells were grown in Dulbecco’s modified Eagle’s medium (DMEM) and F12 HAM Nutrient Mixture; Caco-2 cells were grown in modified Eagle’s medium with nonessential amino acids (NEAA); and melanoma cells and keratinocytes were maintained in modified Eagle’s medium with high (4.5 g/L) glucose concentration. The culture media contained antibiotics and 10% fetal bovine serum (FBS). All cultures were maintained at 37 °C in a humidified, 5% CO2-containing atmosphere.
# (§3) The examined compound (3) was diluted in the culture media from freshly made stock solution in MeOH (10 mg/mL) to the working concentrations (from 0 to 50 μg/mL). Cell viability was determined as described previously. […] Then, the culture medium was replaced with the medium containing different concentrations of the assessed compound (1–50 μg/mL). After 24 h of incubation, the viability of the cells was determined using colorimetric lactate dehydrogenase (LDH) assay in comparison to the controls to which corresponding aliquots of MeOH diluted with culture media were added. Cells grown in the medium without the tested compound were used as control I (negative), and the positive control (control II) was obtained by incubation of the cells in the medium containing 1% Triton X-100. LDH released from the damaged cells into the cell culture medium was quantified by measuring the absorbance at 490 nm using a Synergy II Biotek microplate reader. Cytotoxicities of the examined compounds were calculated as follows: ((absorbance of the tested sample−absorbance of control I)/(absorbance of control II−absorbance of control I)) × 100. Results were means of three independent measurements (± SD). Doxorubicin (Ebewe Pharma G.m.b.H., Unterach, Austria) was used as a reference cytostatic drug.
# PC3 = assay: LDH cell viability assay, prostate cancer cells; assay type: cell-based; conditions: Homo sapiens, PC-3; for IC50: PC3, 24 h, LDH assay
# Procedure: as §1, §2, §3
# [1] = LDH cell viability assay, keratinocytes; assay type: cell-based, human; conditions: human, HaCaT keratinocytes, read-out: Cell Viability (%) ± SD
# Procedure: as §1, §2, §3
# HaCaT = assay: LDH cell viability assay, keratinocytes; assay type: cell-based, human; conditions: Homo sapiens, 24 h, LDH assay
# Procedure: as §1, §2, §3
# A375 = assay: LDH cell viability assay, melanoma cells; assay type: cell-based; conditions: Homo sapiens, A-375; for IC50: A375, 24 h, LDH assay
# Procedure: as §1, §2, §3
# HTB140 = assay: LDH cell viability assay, melanoma cells; assay type: cell-based; conditions: Homo sapiens; for IC50: HTB140, 24 h, LDH assay
# Procedure: as §1, §2, §3
# Caco-2 = assay: LDH cell viability assay, colon cancer cells; assay type: cell-based; conditions: Homo sapiens; for IC50: Caco-2, 24 h, LDH assay
# Procedure: as §1, §2, §3
# [2] = system: normal and cancer cell lines (prostate, skin, gastrointestinal panels); assay: LDH cytotoxicity, whole panel of normal and cancer cell lines; assay type: cell-based; conditions: Homo sapiens; 24 h treatment, cell density 1.5 × 10^4; doxorubicin: except PC3 cells; read-out: IC50 range over the cell lines
# Procedure: Cytotoxic activity of 3 was tested on human cancer and normal cells, grouped in three panels: prostate, skin and gastrointestinal. The prostate panel comprised prostate cancer cell lines DU145 (ATCC HTB-81) and PC3 (ATCC CRL-1435) and prostate normal epithelial cells PNT2 (ECACC 95012613). Melanoma cell lines A375 (ATCC CRL-1619) and HTB140 (ATCC Hs 294T) together with human keratinocytes HaCaT (obtained as a kind gift of Prof. Marta Michalik, Department of Cell Biology, Jagiellonian University) were included in the skin panel. Two colon cancer cell lines, namely Caco-2 (ATCC HTB-37) and HT29 (ATCC HTB-38), constituted the gastrointestinal panel. […]
# The examined compound (3) was diluted in the culture media from freshly made stock solution in MeOH (10 mg/mL) to the working concentrations (from 0 to 50 μg/mL). Cell viability was determined as described previously. […] Then, the culture medium was replaced with the medium containing different concentrations of the assessed compound (1–50 μg/mL). After 24 h of incubation, the viability of the cells was determined using colorimetric lactate dehydrogenase (LDH) assay in comparison to the controls to which corresponding aliquots of MeOH diluted with culture media were added. […] LDH released from the damaged cells into the cell culture medium was quantified by measuring the absorbance at 490 nm using a Synergy II Biotek microplate reader. […]
# HepG2 cells = system: HepG2 cells; parameters: method as in PMID 29751555; conditions: HepG2, cell density 2 × 10^4, 96 h treatment; cited from earlier work
# HeLa cells = system: HeLa cells; parameters: method as in PMID 29751555; conditions: cell density 2 × 10^4, 96 h treatment; cited from earlier work
# A459 cells = system: A459 cells; parameters: method as in PMID 29751555; conditions: cited from earlier work
# [3] = value in parentheses, read-out: IC50 (IC50 µM) (converted)
smiles,measurement,setting,value
C=C1C(=O)O[C@H]2[C@H]1[C@@H](O)[C@H](OC(=O)CC(C)C)[C@H](C)CCC(=O)[C@](C)(O)[C@@H]2OC(=O)C(C)C [Compound 3],viability at 1 µg/mL,"Du145; Du145, 1 µg/mL, 24 h, read-out: Cell Viability (%) ± SD",68.42 ± 0.52%
same,viability at 3 µg/mL,"Du145; Du145, 3 µg/mL, 24 h, read-out: Cell Viability (%) ± SD",56.3 ± 0.97%
same,viability at 5 µg/mL,"Du145; Du145, 5 µg/mL, 24 h, read-out: Cell Viability (%) ± SD",44.8 ± 2.05%
same,viability at 10 µg/mL,"Du145; Du145, 10 µg/mL, 24 h, read-out: Cell Viability (%) ± SD",37.7 ± 2.16%
same,viability at 20 µg/mL,"Du145; Du145, 20 µg/mL, 24 h, read-out: Cell Viability (%) ± SD",23.6 ± 1.54%
same,viability at 30 µg/mL,"Du145; Du145, 30 µg/mL, 24 h, read-out: Cell Viability (%) ± SD",12.5 ± 1.94%
same,viability at 50 µg/mL,"Du145; Du145, 50 µg/mL, 24 h, read-out: Cell Viability (%) ± SD",0.62 ± 0.58%
same,IC50,Du145; [3],10.8 µM
same,IC50,Du145; read-out: IC50,5.08 ± 1.14 µg/mL
same,viability at 1 µg/mL,"PC3; PC3, 1 µg/mL, 24 h, read-out: Cell Viability (%) ± SD",78.5 ± 1.08%
same,viability at 3 µg/mL,"PC3; PC3, 3 µg/mL, 24 h, read-out: Cell Viability (%) ± SD",65 ± 1.46%
same,viability at 5 µg/mL,"PC3; PC3, 5 µg/mL, 24 h, read-out: Cell Viability (%) ± SD",49.9 ± 2.02%
same,viability at 10 µg/mL,"PC3; PC3, 10 µg/mL, 24 h, read-out: Cell Viability (%) ± SD",37.2 ± 1.27%
same,viability at 20 µg/mL,"PC3; PC3, 20 µg/mL, 24 h, read-out: Cell Viability (%) ± SD",29.2 ± 1.89%
same,viability at 30 µg/mL,"PC3; PC3, 30 µg/mL, 24 h, read-out: Cell Viability (%) ± SD",5.42 ± 2.25%
same,viability at 50 µg/mL,"PC3; PC3, 50 µg/mL, 24 h, read-out: Cell Viability (%) ± SD",0.65 ± 0.33%
same,IC50,PC3; [3],19.1 µM
same,IC50,PC3; read-out: IC50,8.92 ± 1.02 µg/mL
same,"viability at 24 h, 1 µg/mL",[1]; 1 µg/mL,86.8 ± 1.7%
same,"viability at 24 h, 3 µg/mL",[1]; 3 µg/mL,74.5 ± 2.29%
same,"viability at 24 h, 5 µg/mL",[1]; 5 µg/mL,64.4 ± 1.33%
same,"viability at 24 h, 10 µg/mL",[1]; 10 µg/mL,30.5 ± 1.32%
same,"viability at 24 h, 20 µg/mL",[1]; 20 µg/mL,0.79 ± 0.72%
same,"viability at 24 h, 30 µg/mL",[1]; 30 µg/mL,0%
same,"viability at 24 h, 50 µg/mL",[1]; 50 µg/mL,0%
same,IC50,HaCaT; read-out: IC50,7.95 ± 0.15 µg/mL
same,IC50,HaCaT; [3],17 µM
same,viability at 1 µg/mL,"A375; A375, 1 µg/mL, 24 h, read-out: Cell Viability (%) ± SD",64.2 ± 1.13%
same,viability at 3 µg/mL,"A375; A375, 3 µg/mL, 24 h, read-out: Cell Viability (%) ± SD",55.4 ± 1.44%
same,viability at 5 µg/mL,"A375; A375, 5 µg/mL, 24 h, read-out: Cell Viability (%) ± SD",43.8 ± 1.69%
same,viability at 10 µg/mL,"A375; A375, 10 µg/mL, 24 h, read-out: Cell Viability (%) ± SD",33 ± 2.3%
same,viability at 20 µg/mL,"A375; A375, 20 µg/mL, 24 h, read-out: Cell Viability (%) ± SD",7.09 ± 1.78%
same,viability at 30 µg/mL,"A375; A375, 30 µg/mL, 24 h, read-out: Cell Viability (%) ± SD",0.82 ± 0.65%
same,viability at 50 µg/mL,"A375; A375, 50 µg/mL, 24 h, read-out: Cell Viability (%) ± SD",0%
same,IC50,A375; [3],20.4 µM
same,IC50,A375; read-out: IC50,9.57 ± 0.87 µg/mL
same,viability at 1 µg/mL,"HTB140; HTB140, 1 µg/mL, 24 h, read-out: Cell Viability (%) ± SD",81.4 ± 1.28%
same,viability at 3 µg/mL,"HTB140; HTB140, 3 µg/mL, 24 h, read-out: Cell Viability (%) ± SD",70.8 ± 2.37%
same,viability at 5 µg/mL,"HTB140; HTB140, 5 µg/mL, 24 h, read-out: Cell Viability (%) ± SD",50.9 ± 1.8%
same,viability at 10 µg/mL,"HTB140; HTB140, 10 µg/mL, 24 h, read-out: Cell Viability (%) ± SD",21.5 ± 2.53%
same,viability at 20 µg/mL,"HTB140; HTB140, 20 µg/mL, 24 h, read-out: Cell Viability (%) ± SD",4.1 ± 1.75%
same,viability at 30 µg/mL,"HTB140; HTB140, 30 µg/mL, 24 h, read-out: Cell Viability (%) ± SD",0.59 ± 0.78%
same,viability at 50 µg/mL,"HTB140; HTB140, 50 µg/mL, 24 h, read-out: Cell Viability (%) ± SD",0%
same,IC50,HTB140; [3],13.6 µM
same,IC50,HTB140; read-out: IC50,6.36 ± 0.38 µg/mL
same,viability at 1 µg/mL,"Caco-2; Caco-2, 1 µg/mL, 24 h, read-out: Cell Viability (%) ± SD",52.8 ± 1.62%
same,viability at 3 µg/mL,"Caco-2; Caco-2, 3 µg/mL, 24 h, read-out: Cell Viability (%) ± SD",38.6 ± 2.35%
same,viability at 5 µg/mL,"Caco-2; Caco-2, 5 µg/mL, 24 h, read-out: Cell Viability (%) ± SD",15.1 ± 2.91%
same,viability at 10 µg/mL,"Caco-2; Caco-2, 10 µg/mL, 24 h, read-out: Cell Viability (%) ± SD",1.96 ± 2.7%
same,viability at 20 µg/mL,"Caco-2; Caco-2, 20 µg/mL, 24 h, read-out: Cell Viability (%) ± SD",0.31 ± 0.43%
same,viability at 30 µg/mL,"Caco-2; Caco-2, 30 µg/mL, 24 h, read-out: Cell Viability (%) ± SD",0%
same,viability at 50 µg/mL,"Caco-2; Caco-2, 50 µg/mL, 24 h, read-out: Cell Viability (%) ± SD",0%
same,IC50,Caco-2; [3],8.29 µM
same,IC50,Caco-2; read-out: IC50,3.88 ± 0.1 µg/mL
same,IC50,[2],8.3 to 35 µM
same,IC50,HepG2 cells,17 µM
same,IC50,HeLa cells,29.4 µM
same,Cytotoxicity,A459 cells,resistant
